Assay results reported in patent US20070117842A1, “Polymorph of 4-[3-chloro-4-(cyclopropylaminocarbonyl)aminophenoxy]-7-methoxy-6- quinolinecarboxamide and a process for the preparation of the same” (priority 2003, published 2007).
In brackets after ≈: the same amount, converted by molar mass.

Experiments:
Format in all cases: physicochemical
[1] = Hygroscopicity test by a desiccator method; conditions: for water content: Karl Fischer method
Experimental: (Hygroscopicity Test by a Desiccator Method) The hygroscopicities of the crystals obtained in Examples 1d and 2d were evaluated by a desiccator method. […] Weighing bottles (in opened caps) were used for containers, and MIR-552 (Sanyo) was used for a storage apparatus. [table] The powder X-ray diffraction analysis was carried out under the following conditions. The water content was measured (by the Karl Fischer method) by using the following apparatus and reagents.

[2] = Crystal transition between polymorphs in heated suspension; conditions: 60° C., 3 hours, listed as polymorph (A)
Experimental: These suspensions were filtered to collect 4-(3-chloro-4-(cyclopropylaminocarbonyl)aminophenoxy)-7-methoxy-6-quinolinecarboxamide (184 to 266 mg).
These suspensions were filtered to collect 4-(3-chloro-4-(cyclopropylaminocarbonyl)aminophenoxy)-7-methoxy-6-quinolinecarboxamide (141 to 256 mg).

[3] = Hygroscopicity test by microbalance method; conditions: 25° C.
Experimental: (Hygroscopicity Test by Microbalance Method)
The higroscopicities of the crystals obtained in Examples 1d and 2d were evaluated by microbalance method. An apparatus and conditions employed were as follows.
Apparatus: Integrated microbalance system MB 300W (VTI Co.)
Relative humidity step: 5 to 95 by 5
Equilibrium Criteria: 0.0050 wt % (5 minutes)
Maximum equilibrium time: 120 minutes
The results of measuring the higroscopicities of the crystals obtained in Examples 1d and 2d by microbalance method are shown in FIGS. 13 and 14, respectively. As is seen from the results shown in these figures, within the range of 5-95% of relative humidity, the polymorph (A) gave a weight change of 1% and the polymorph (B) gave that of 1.5%.

[4] = Solubility test (pH 3, Britton Robinson buffer); conditions: for pH of the filtrate: solubility test
Experimental: (Solubility Test) The solubilities (pH 3) of the crystals obtained in Examples 1d and 2d were evaluated by the following method. About 3 mg of the crystals obtained in Examples 1d and 2d were weighed and each of them was put in a 10 mL screw-capped transparent test tube. 5 mL of a buffer solution (Britton Robinson buffer, pH 3.091, ionic strength I=0.3) was added to each of the test tubes to prepare the test solutions. The test tubes were wrapped with aluminum foil to shield from light, and shaken by a shaker (MS-1 Iuchi Seieido) in the following conditions. Temperature: 25-26° C. (a temperature in a laboratory) Shaking frequency: 150 times/minute Shaking time: 3 hours and 5 hours Respective sample solutions after shaking were filtered ([…], Sample LCR13-LG, Millipore Co.), and each 1 mL of the initial filtrate was discarded. Each of accurately pipetted 1 mL of the filtrates was put in a 10 mL test tube, to which accurately pipetted 1 mL of a mixed solution of water/acetonitrile (1:1 (v/v)) was added to prepare a solution for the HPLC analysis. The HPLC conditions were as follows. A standard solution for the HPLC analysis were prepared as follows. About 10 mg of the crystals obtained in Example 2d was accurately weighed, to which a mixed solution of water/acetonitrile/ammonium acetate (100:100:0.1, v/v/w) was added to give accurate 100 mL to prepare a stock standard solution. Accurately pipetted 5 mL of the stock control solution was added with a mixed solution of water/acetonitrile/ammonium acetate (100:100:0.1, v/v/w) to give accurate 25 mL to prepare the standard solution for the HPLC analysis. Regarding a blank solution, a mixed solution of water/acetonitrile/ammonium acetate (100:100:0.1, v/v/w) was used. The standard solution and respective filtrates were analyzed by HPLC to measure concentrations (mg/mL) of 4-(3-chloro-4-(cyclopropylaminocarbonyl)aminophenoxy)-7-methoxy-6-quinolinecarboxamide in respective filtrates according to the following equation. Concentration (mg/mL)=(Concentration in the standard solution, mg/mL)×[(Peak area in each filtrate)×2/(Peak area in the standard solution)] As is evident from the results, there was no significant difference in the solubility at pH 3 between the polymorphs (A) and (B).

[5] = Solid stability test (1 month storage; appearance, water content, HPLC purity and residual ratio, powder X-ray diffraction); conditions: for impurity / remaining percent: HPLC; for water content: Karl Fischer method
Experimental: (Solid Stability Test) The solid stabilities of the crystal obtained in Examples 1d and 2d were evaluated. […] The water content measurement and the powder X-ray diffraction measurement were carried out by the same method as described in the hygroscopicity test by the dessiccator method. Further, the purity test and the residual ratio (percent) measurement by HPLC were carried out by the same method as described above, except for the condition that the column temperature was 35° C. In this connection, the residual ratio (percent) (measurement by HPLC) was defined as stated bellow by using the crystal stored under the condition C as the standard and its solution as the standard solution. Remaining percent (%)=[(Peak area of the sample solution)×(Weighed amount of the standard: in terms of a dehydrate (mg))]×100/[(Peak area of the standard solution)×(Weighed amount of the sample: in terms of a dehydrate (mg))] [table]

[6] = condition A: 25° C., 75% relative humidity, stored 1 week
[7] = condition B: 25° C., 93% relative humidity, stored 1 week
[8] = desiccator method, 25° C., 75% or 93% relative humidity, 1 week
[9] = condition C: −20° C., brown screw vial, closed, 1 month
[10] = condition D: 25° C., 1000lx, shading with aluminum foil, quartz tube, closed, 1 month
[11] = condition E: 25° C., 1000lx, quartz tube, closed, 1 month
[12] = condition F: 40° C., 75% RH, brown screw vial, open, 1 month
[13] = condition G: 60° C., brown screw vial, closed, 1 month

For COc1cc2nccc(Oc3ccc(NC(=O)NC4CC4)c(Cl)c3)c2cc1C(N)=O [Example 1d, 4-(3-chloro-4-(cyclopropylaminocarbonyl)aminophenoxy)-7-methoxy-6-quinolinecarboxamide], the appearance [1, 6] was “light brown”, the water content [1, 6] was 1.0 wt % and the appearance [1, 7] was “light brown”. For the same compound, the water content [1, 7] was 1.2 wt %, the crystal transition [1, 8] was “no perceivable crystal transition” and the hygroscopicity [1, 8] was “no perceivable hygroscopicitiy”. The appearance ([1]; prior to storage) was “light brown”, the water content ([1]; prior to storage) was 1.0 wt % and the “crystal form after suspension” value ([2]; 300 mg in DMSO (1.7 mL) and 33% (v/v) acetone-water (0.17, 0.34, 0.51 or 0.85 mL)) was “crystal transition to the polymorph (B) occurred in every case”. The “dissolution in DMSO” value ([2]; 300 mg in DMSO (1.7 mL), without 33% acetone-water) was “most of the polymorph (A) dissolved”, the hygroscopicity ([3]; microbalance method, 5-95% relative humidity) was “no perceivable hygroscopisity” and the weight change ([3]; within the range of 5-95% of relative humidity, listed as polymorph (A)) was 1%. For the same compound, the solubility at 3 h ([4]; Britton Robinson buffer, 25 °C, pH 3, aqueous buffer, thermodynamic from solid, pH 3 Britton Robinson buffer, 25-26° C., shaking time 3 hours, read-out: solubility (concentration in filtrate)) was 77 µg/mL (≈ 180 µM), the solubility at 5 h ([4]; Britton Robinson buffer, 25 °C, pH 3, aqueous buffer, thermodynamic from solid, pH 3 Britton Robinson buffer, 25-26° C., shaking time 5 hours, read-out: solubility (concentration in filtrate)) was 71 µg/mL (≈ 166 µM) and the “pH of the filtrate” value ([4]; shaking time 3 hours) was 3.123. The “pH of the filtrate” value ([4]; shaking time 5 hours) was 3.107, the appearance [5, 9] was “light brown” and the impurity [5, 9] was 2.66%. For the same compound, the remaining percent ([5]; condition C: −20° C., brown screw vial, closed, 1 month, condition C is the standard) was “(100) %”, the water content [5, 9] was 1.0 wt % and the appearance [5, 10] was “light brown”. The impurity [5, 10] was 2.67%, the remaining percent ([5]; condition D: 25° C., 1000lx, shading with aluminum foil, quartz tube, closed, 1 month, vs condition C standard) was 103.3% and the water content [5, 10] was 0.7 wt %. The appearance [5, 11] was “light brown”, the impurity [5, 11] was 2.68% and the remaining percent ([5]; condition E: 25° C., 1000lx, quartz tube, closed, 1 month, vs condition C standard) was 104.3%. For the same compound, the water content [5, 11] was 0.8 wt %, the appearance [5, 12] was “light brown” and the impurity [5, 12] was 2.65%. The remaining percent ([5]; condition F: 40° C., 75% RH, brown screw vial, open, 1 month, vs condition C standard) was 102.3%, the water content [5, 12] was 1.2 wt % and the appearance [5, 13] was “light brown”. The impurity [5, 13] was 2.65%, the remaining percent ([5]; condition G: 60° C., brown screw vial, closed, 1 month, vs condition C standard) was 104.4% and the water content [5, 13] was 0.5 wt %. The appearance ([5]; prior to storage) was “light brown”, the impurity ([5]; prior to storage) was 2.71% and the water content ([5]; prior to storage) was 1.0 wt %. For the same compound, the “change on storage (solid stability)” value ([5]; stored for 1 month, any storage conditions) was “no change was observed”.
